According to patent US10722514B2 (FLX Bio, Inc., priority 2017, dated 2020):
Structures can show the parent of a compound that is named as a salt. Where two headings read alike, the source gives them in different places.

Target: T1, recombinant full-length USP7 (Homo sapiens, UniProt Q93009)
T1 construct: A 25 μl reaction volume containing recombinant full-length USP7 (62 pM)
Test: USP7-mediated ubiquitin-rhodamine cleavage assay
Format: biochemical
Details: recombinant full-length USP7 62 pM, ubiquitin-rhodamine 100 nM, 1 hour reaction at room temperature
In short: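 Enzyme 62 pM; HEPES pH 7.3/150 mM NaCl/1 mM TCEP/125 μg/ml BSA; 1% DMSO; 30 min cpd preinc RT; Ub-rhodamine 100 nM, 1 h RT, dark; acetic acid stop; fluorescence; IC50 4-param fit.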

[1] = 30-minute pre-incubation, read-out: Potency (USP7 IC50)
[2] = 30-minute incubation with compound, read-out: Potency: USP7 IC50
[3] = 30-minute incubation, read-out: Potency (USP7 IC50)

T1 sequence (Q93009 whole entry): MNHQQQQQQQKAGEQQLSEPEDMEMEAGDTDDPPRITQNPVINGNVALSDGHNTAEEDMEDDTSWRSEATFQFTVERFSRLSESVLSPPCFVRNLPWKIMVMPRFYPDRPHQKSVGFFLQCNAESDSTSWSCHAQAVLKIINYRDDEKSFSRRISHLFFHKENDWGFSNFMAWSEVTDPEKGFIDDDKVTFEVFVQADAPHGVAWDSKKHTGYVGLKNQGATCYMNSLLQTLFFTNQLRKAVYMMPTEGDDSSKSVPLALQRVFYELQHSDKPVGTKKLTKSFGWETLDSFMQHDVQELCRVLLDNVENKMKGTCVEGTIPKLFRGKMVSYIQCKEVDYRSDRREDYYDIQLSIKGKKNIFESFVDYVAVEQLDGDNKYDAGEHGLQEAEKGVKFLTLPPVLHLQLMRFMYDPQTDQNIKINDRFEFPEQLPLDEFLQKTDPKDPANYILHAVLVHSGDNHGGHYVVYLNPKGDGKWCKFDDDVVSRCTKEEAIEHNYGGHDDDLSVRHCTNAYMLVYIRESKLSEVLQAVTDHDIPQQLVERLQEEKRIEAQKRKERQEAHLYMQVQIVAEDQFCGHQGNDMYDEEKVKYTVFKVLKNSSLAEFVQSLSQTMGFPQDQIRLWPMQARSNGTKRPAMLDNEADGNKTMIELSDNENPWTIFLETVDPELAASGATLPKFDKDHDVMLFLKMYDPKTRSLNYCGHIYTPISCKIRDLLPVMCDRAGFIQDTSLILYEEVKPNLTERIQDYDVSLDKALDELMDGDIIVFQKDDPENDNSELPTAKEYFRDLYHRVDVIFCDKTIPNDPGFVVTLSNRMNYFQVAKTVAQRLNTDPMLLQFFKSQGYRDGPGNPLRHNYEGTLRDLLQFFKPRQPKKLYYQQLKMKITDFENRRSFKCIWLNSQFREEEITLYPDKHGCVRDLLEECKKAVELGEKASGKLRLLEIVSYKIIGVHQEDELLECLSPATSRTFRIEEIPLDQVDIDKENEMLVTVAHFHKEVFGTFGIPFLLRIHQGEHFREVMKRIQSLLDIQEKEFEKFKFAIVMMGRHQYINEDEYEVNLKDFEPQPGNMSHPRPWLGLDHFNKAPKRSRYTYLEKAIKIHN

## CCn1ccc(=O)n(Cc2cc3ncnc(-c4cc(Cl)cc(C)c4O[C@H]4CCCNC4)c3s2)c1=O [Example 440, 3-[[4-[5-chloro-3-methyl-2-[[(3S)-3-piperidyl]oxy]phenyl]thieno[3,2-d]pyrimidin-6-yl]methyl]-1-ethyl-pyrimidine-2,4-dione; 2,2,2-trifluoroacetic acid]
[1]
  IC50: < 1000 nM

## Cc1cc(Cl)cc(-c2ncnc3cc(CN4C(=O)C5C(C4=O)C5(C)C)sc23)c1O[C@@H]1CN(C)C[C@@H]1F (stereo partly drawn) [Example 348, 3-[[4-[5-chloro-2-[(3R,4S)-4-fluoro-1-methyl-pyrrolidin-3-yl]oxy-3-methyl-phenyl]thieno[3,2-d]pyrimidin-6-yl]methyl]-6,6-dimethyl-3-azabicyclo[3.1.0]hexane-2,4-dione dihydrochloride]
[2]
  IC50: < 1000 nM

## Cc1cc(Cl)cc(-c2ncnc3cc(Cn4c(=O)ccn(C(C)C)c4=O)sc23)c1O[C@@H]1CCNC[C@@H]1C [Example 508, 3-[[4-[5-chloro-3-methyl-2-[[(3S,4R)-3-methyl-4-piperidyl]oxy]phenyl]thieno[3,2-d]pyrimidin-6-yl]methyl]-1-isopropyl-pyrimidine-2,4-dione]
[1]
  IC50: < 1000 nM

## Cc1cc(Cl)cc(-c2ccnc3cc(Cn4c(=O)ccn(C)c4=O)sc23)c1OC1CCCNCC1F (stereo not drawn) [Example 471, 3-[[7-[5-chloro-2-(3-fluoroazepan-4-yl)oxy-3-methyl-phenyl]thieno[3,2-b]pyridin-2-yl]methyl]-1-methyl-pyrimidine-2,4-dione]
[1]
  IC50: < 1000 nM

## Cc1cc(Cl)cc(-c2ccnc3cc(Cn4c(=O)ccn(C(C)C)c4=O)sc23)c1O[C@H]1CCNC[C@@H]1F [Example 563, 3-[[7-[5-chloro-2-[[(3S,4S)-3-fluoro-4-piperidyl]oxy]-3-methyl-phenyl]thieno[3,2-b]pyridin-2-yl]methyl]-1-isopropyl-pyrimidine-2,4-dione]
[1]
  IC50: < 1000 nM

## Cc1cc(Cl)cc(-c2ccnc3cc(CN4C(=O)CCC4=O)sc23)c1OC1CC(N)C1 (stereo not drawn) [Example 438, 1-[[7-[2-(3-aminocyclobutoxy)-5-chloro-3-methyl-phenyl]thieno[3,2-b]pyridin-2-yl]methyl]pyrrolidine-2,5-dione; 2,2,2-trifluoroacetic acid]
[1]
  IC50: < 1000 nM

## Cc1cc(Cl)cc(-c2ccnc3cc(Cn4c(=O)ccn(C)c4=O)sc23)c1OC1CCCN(CCC(F)(F)F)C1 (stereo not drawn) [Example 507, 3-[[7-[5-chloro-3-methyl-2-[[1-(3,3,3-trifluoropropyl)-3-piperidyl]oxy]phenyl]thieno[3,2-b]pyridin-2-yl]methyl]-1-methyl-pyrimidine-2,4-dione]
[1]
  IC50: < 1000 nM

## Cc1cc(Cl)cc(-c2ccnc3cc(Cn4c(=O)[nH]cc(C(F)(F)F)c4=O)sc23)c1O[C@H]1CCCNC1 [Example 571, 3-[[7-[5-chloro-3-methyl-2-[[(3S)-3-piperidyl]oxy]phenyl]thieno[3,2-b]pyridin-2-yl]methyl]-5-(trifluoromethyl)-1H-pyrimidine-2,4-dione]
[1]
  IC50: < 1000 nM

## Cc1cc(Cl)cc(-c2ccnc3cc(Cn4c(=O)ccn(CC(F)(F)F)c4=O)sc23)c1O[C@@H]1CN[C@@H]1C [Example 591, 3-[[7-[5-chloro-3-methyl-2-[(2R,3R)-2-methylazetidin-3-yl]oxy-phenyl]thieno[3,2-b]pyridin-2-yl]methyl]-1-(2,2,2-trifluoroethyl)pyrimidine-2,4-dione]
[1]
  IC50: < 1000 nM

## CC(=O)N1CCC[C@H](Oc2c(C)cc(Cl)cc2-c2ccnc3cc(Cn4c(=O)ccn(CC(F)(F)F)c4=O)sc23)C1 [Example 660, 3-[[7-[2-[[(3S)-1-acetyl-3-piperidyl]oxy]-5-chloro-3-methyl-phenyl]thieno[3,2-b]pyridin-2-yl]methyl]-1-(2,2,2-trifluoroethyl)pyrimidine-2,4-dione]
[1]
  IC50: < 1000 nM

## 3-[[7-[5-chloro-3-methyl-2-[[(3S,6S)-6-methyl-3-piperidyl]oxy]phenyl]thieno[3,2-b]pyridin-2-yl]methyl]-6,6-dimethyl-3-azabicyclo[3.1.0]hexane-2,4-dione; 2,2,2-tirfluoroacetic acid [Example 304]
[2]
  IC50: < 1000 nM

## COCC1(N)CC(Oc2c(C)cc(Cl)cc2-c2ccnc3cc(Cn4c(=O)ccn(CC(F)(F)F)c4=O)sc23)C1 (stereo not drawn) [Example 699, 3-[[7-[2-[3-amino-3-(methoxymethyl)cyclobutoxy]-5-chloro-3-methyl-phenyl]thieno[3,2-b]pyridin-2-yl]methyl]-1-(2,2,2-trifluoroethyl)pyrimidine-2,4-dione]
[3]
  IC50: < 1000 nM

## Cc1cc(Cl)cc(-c2ccnc3cc(CN4C(=O)CCC4=O)sc23)c1OC1CC(C)(N)C1 (stereo not drawn) [Example 444, 1-[[7-[2-(3-amino-3-methyl-cyclobutoxy)-5-chloro-3-methyl-phenyl]thieno[3,2-b]pyridin-2-yl]methyl]pyrrolidine-2,5-dione dihydrochloride]
[1]
  IC50: < 1000 nM

## Cc1cc(Cl)cc(-c2ccnc3cc(CO)sc23)c1OCC1(F)CNC1 [Example 20, (7-(5-Chloro-2-((3-fluoroazetidin-3-yl)methoxy)-3-methylphenyl)thieno[3,2-b]pyridin-2-yl)methanol]
[2]
  IC50: 1000 to 10000 nM

## Cc1cc(Cl)cc(-c2ncnc3cc(Cn4c(=O)ccn(CC(F)(F)F)c4=O)sc23)c1O[C@H]1CCNC[C@H]1C [Example 585, 3-[[4-[5-chloro-3-methyl-2-[[(3R,4S)-3-methyl-4-piperidyl]oxy]phenyl]thieno[3,2-d]pyrimidin-6-yl]methyl]-1-(2,2,2-trifluoroethyl)pyrimidine-2,4-dione]
[1]
  IC50: < 1000 nM

## Cc1cc(C(F)F)cc(-c2ccnc3cc(Cn4c(=O)ccn(C)c4=O)sc23)c1O[C@H]1CCCNC1 [Example 499, 3-[[7-[5-(difluoromethyl)-3-methyl-2-[[(3S)-3-piperidyl]oxy]phenyl]thieno[3,2-b]pyridin-2-yl]methyl]-1-methyl-pyrimidine-2,4-dione]
[1]
  IC50: < 1000 nM

## Cc1cc(Cl)cc(-c2ccnc3cc(Cn4c(=O)ccn(CC(F)(F)F)c4=O)sc23)c1OC1CCC(O)CC1 (stereo not drawn) [Example 677, 3-[[7-[5-chloro-2-(4-hydroxycyclohexoxy)-3-methyl-phenyl]thieno[3,2-b]pyridin-2-yl]methyl]-1-(2,2,2-trifluoroethyl)pyrimidine-2,4-dione]
[3]
  IC50: < 1000 nM

## Cc1cc(Cl)cc(-c2ccnc3cc(Cn4c(=O)ccn(C)c4=O)sc23)c1O[C@@H]1CNC[C@H](F)C1 [Example 497, 3-[[7-[5-chloro-2-[[(3S,5R)-5-fluoro-3-piperidyl]oxy]-3-methyl-phenyl]thieno[3,2-b]pyridin-2-yl]methyl]-1-methyl-pyrimidine-2,4-dione]
[1]
  IC50: < 1000 nM

## Cc1cc(Cl)cc(-c2ncnc3cc(CN4C(=O)CCC4=O)sc23)c1O[C@@H]1CCNC[C@H]1F [Example 306, 1-[[4-[5-chloro-2-[[(3R,4R)-3-fluoro-4-piperidyl]oxy]-3-methyl-phenyl]thieno[3,2-d]pyrimidin-6-yl]methyl]pyrrolidine-2,5-dione dihydrochloride]
[2]
  IC50: < 1000 nM

## Cc1cc(Cl)cc(-c2ncnc3cc(Cn4c(=O)ccn(CC(F)(F)F)c4=O)sc23)c1OC1CC(N)C1 (stereo not drawn) [Example 534, 3-[[4-[2-(3-aminocyclobutoxy)-5-chloro-3-methyl-phenyl]thieno[3,2-d]pyrimidin-6-yl]methyl]-1-(2,2,2-trifluoroethyl)pyrimidine-2,4-dione; 2,2,2-trifluoroacetic acid]
[1]
  IC50: < 1000 nM

## Cc1cc(Cl)cc(-c2ccnc3cc(CN4C(=O)CCC4=O)sc23)c1OC1CCNC1(C)C (stereo not drawn) [Example 343, 1-[[7-[5-chloro-2-(2,2-dimethylpyrrolidin-3-yl)oxy-3-methyl-phenyl]thieno[3,2-b]pyridin-2-yl]methyl]pyrrolidine-2,5-dione]
[2]
  IC50: < 1000 nM

## Cc1cc(Cl)cc(-c2ccnc(CCCN3C(=O)CCC3=O)c2)c1OC1CCNCC1 [Example 410, 1-[3-[4-[5-chloro-3-methyl-2-(4-piperidyloxy)phenyl]-2-pyridyl]propyl]pyrrolidine-2,5-dione; 2,2,2-trifluoroacetic acid]
[1]
  IC50: 1000 to 10000 nM

## Cc1cc(Cl)cc(-c2ncnc3cc(CN4C(=O)C5C(C4=O)C5(C)C)sc23)c1O[C@@H]1CCNC[C@@H]1F (stereo partly drawn) [Example 377, 3-[[4-[5-chloro-2-[[(3S,4R)-3-fluoro-4-piperidyl]oxy]-3-methyl-phenyl]thieno[3,2-d]pyrimidin-6-yl]methyl]-6,6-dimethyl-3-azabicyclo[3.1.0]hexane-2,4-dione; 2,2,2-trifluoroacetic acid]
[2]
  IC50: < 1000 nM

## Cc1cc(Cl)cc(-c2ccnc3cc(CO)sc23)c1OC[C@H]1CCCN1 [Example 58, (R)-(7-(5-Chloro-3-methyl-2-(pyrrolidin-2-ylmethoxy)phenyl)thieno[3,2-b]pyridin-2-yl)methanol]
[2]
  IC50: 10000 to 30000 nM

## Cc1cc(Cl)cc(-c2ccnc3cc(CN4C(=O)C5CC5C4=O)sc23)c1OC1CN2CCC1CC2 (stereo not drawn) [Example 319, 3-[[7-(5-chloro-3-methyl-2-quinuclidin-3-yloxy-phenyl)thieno[3,2-b]pyridin-2-yl]methyl]-3-azabicyclo[3.1.0]hexane-2,4-dione; 2,2,2-trifluoroacetic acid]
[2]
  IC50: < 1000 nM

## Cc1cc(Cl)cc(-c2ccnc3cc(Cn4c(=O)ccn(CC(F)(F)F)c4=O)sc23)c1OC1CC(C)(N2CCOCC2)C1 (stereo not drawn) [Example 613, 3-[[7-[5-chloro-3-methyl-2-(3-methyl-3-morpholino-cyclobutoxy)phenyl]thieno[3,2-b]pyridin-2-yl]methyl]-1-(2,2,2-trifluoroethyl)pyrimidine-2,4-dione; 2,2,2-trifluoroacetic acid]
[1]
  IC50: < 1000 nM

## Cc1cc(Cl)cc(-c2ccnc3cc(CN4C(=O)C5CC5C4=O)sc23)c1O[C@@H]1CNC[C@@H]1F (stereo partly drawn) [Example 300, 3-[[7-[5-chloro-2-[(3R,4S)-4-fluoropyrrolidin-3-yl]oxy-3-methyl-phenyl]thieno[3,2-b]pyridin-2-yl]methyl]-3-azabicyclo[3.1.0]hexane-2,4-dione]
[2]
  IC50: < 1000 nM
